Results as given in US11878966B2, “Substituted 4-benzyl and 4-benzoyl piperidine derivates” (89BIO LTD, priority 2015, dated 2024).

What follows are molecules tested against T1, recombinant human baculovirus-expressed GST-tagged FASN (Homo sapiens, UniProt P49327) (assay: FASN enzyme activity assay: fluorescence-based detection of CoA with CPM). Conditions: 5 nM FASN, 150 μM NADPH, 10 μM acetyl-CoA, 25 μM malonyl-CoA, 90 minutes incubation.
T1 construct: GST; host or cells: baculovirus expression system (insect cells implied)
Assay type: biochemical
Excerpt: FASN Enzyme activity may be determined by detecting coenzyme A (CoA), a product of FASN-catalyzed synthesis of palmitate from acetyl-CoA and malonyl-CoA with NADPH as a cofactor. The assay is fluorescence-based and measures the interaction of free CoA with 7-diethylamino-3-(4′-malemimidylphenyl)-4-methylcoumarin (CPM; Life Technologies, CA) as described in Chung et al (2008). The coumarin derivative CPM contains a thiol-reactive maleimide that becomes fluorescent upon interaction with the sulfhydryl group of CoA.
For the example compounds described herein, the reaction was performed in 384-well low volume non-binding platews (Corning, NY) using recombinant human baculovirus-expressed GST-tagged FASN. The 20-μL assay mixture contained 50 mM HEPES (pH 7.5), 5 nM FASN, 150 μM NADPH (Sigma, St. Louis, MO), 10 μM acetyl-CoA (Sigma), 25 μM malonyl-CoA (Sigma) and test compound [diluted in dimethyl sulfoxide (DMSO); 0.5% DMSO final in assay after 100 nL addition]. See, Chung et al.; “A fluorescence-based thiol quantification assay for ultra-high-throughput screening for inhibitors of coenzyme A production,” Assay Drug Dev Tech 2008; 6:361-374.
The reaction was initiated by adding malonyl-CoA, followed by incubation for 90 minutes at […]. A stock solution of the CPM reagent was prepared in DMSO al 66 μM and stored at […]. To detect CoA produced in the FASN reaction, the CPM stock was diluted to 50 μM in 70% ethanol and added at 4 μL/well to the assay place. The reaction mixture was then incubated for 30 minutes. Fluorescence was measured using the EnVision™ 2102 multi-label plate reader (PerkinElmer, Waltham, MA) utilizing a general dual mirror, a 390 nm excitation filter and a 530 nm emission filter. Data analysis was performed using ActivityBase (IDBS, Guilford, UK). IC50 values were calculated by plotting the percent inhibition versus log 10 of the concentration of the compound, and fitting to the nonlinear regression sigmoidal dose-response (variable slope) equation in XLFit (IDBS).

T1 sequence (P49327 whole entry): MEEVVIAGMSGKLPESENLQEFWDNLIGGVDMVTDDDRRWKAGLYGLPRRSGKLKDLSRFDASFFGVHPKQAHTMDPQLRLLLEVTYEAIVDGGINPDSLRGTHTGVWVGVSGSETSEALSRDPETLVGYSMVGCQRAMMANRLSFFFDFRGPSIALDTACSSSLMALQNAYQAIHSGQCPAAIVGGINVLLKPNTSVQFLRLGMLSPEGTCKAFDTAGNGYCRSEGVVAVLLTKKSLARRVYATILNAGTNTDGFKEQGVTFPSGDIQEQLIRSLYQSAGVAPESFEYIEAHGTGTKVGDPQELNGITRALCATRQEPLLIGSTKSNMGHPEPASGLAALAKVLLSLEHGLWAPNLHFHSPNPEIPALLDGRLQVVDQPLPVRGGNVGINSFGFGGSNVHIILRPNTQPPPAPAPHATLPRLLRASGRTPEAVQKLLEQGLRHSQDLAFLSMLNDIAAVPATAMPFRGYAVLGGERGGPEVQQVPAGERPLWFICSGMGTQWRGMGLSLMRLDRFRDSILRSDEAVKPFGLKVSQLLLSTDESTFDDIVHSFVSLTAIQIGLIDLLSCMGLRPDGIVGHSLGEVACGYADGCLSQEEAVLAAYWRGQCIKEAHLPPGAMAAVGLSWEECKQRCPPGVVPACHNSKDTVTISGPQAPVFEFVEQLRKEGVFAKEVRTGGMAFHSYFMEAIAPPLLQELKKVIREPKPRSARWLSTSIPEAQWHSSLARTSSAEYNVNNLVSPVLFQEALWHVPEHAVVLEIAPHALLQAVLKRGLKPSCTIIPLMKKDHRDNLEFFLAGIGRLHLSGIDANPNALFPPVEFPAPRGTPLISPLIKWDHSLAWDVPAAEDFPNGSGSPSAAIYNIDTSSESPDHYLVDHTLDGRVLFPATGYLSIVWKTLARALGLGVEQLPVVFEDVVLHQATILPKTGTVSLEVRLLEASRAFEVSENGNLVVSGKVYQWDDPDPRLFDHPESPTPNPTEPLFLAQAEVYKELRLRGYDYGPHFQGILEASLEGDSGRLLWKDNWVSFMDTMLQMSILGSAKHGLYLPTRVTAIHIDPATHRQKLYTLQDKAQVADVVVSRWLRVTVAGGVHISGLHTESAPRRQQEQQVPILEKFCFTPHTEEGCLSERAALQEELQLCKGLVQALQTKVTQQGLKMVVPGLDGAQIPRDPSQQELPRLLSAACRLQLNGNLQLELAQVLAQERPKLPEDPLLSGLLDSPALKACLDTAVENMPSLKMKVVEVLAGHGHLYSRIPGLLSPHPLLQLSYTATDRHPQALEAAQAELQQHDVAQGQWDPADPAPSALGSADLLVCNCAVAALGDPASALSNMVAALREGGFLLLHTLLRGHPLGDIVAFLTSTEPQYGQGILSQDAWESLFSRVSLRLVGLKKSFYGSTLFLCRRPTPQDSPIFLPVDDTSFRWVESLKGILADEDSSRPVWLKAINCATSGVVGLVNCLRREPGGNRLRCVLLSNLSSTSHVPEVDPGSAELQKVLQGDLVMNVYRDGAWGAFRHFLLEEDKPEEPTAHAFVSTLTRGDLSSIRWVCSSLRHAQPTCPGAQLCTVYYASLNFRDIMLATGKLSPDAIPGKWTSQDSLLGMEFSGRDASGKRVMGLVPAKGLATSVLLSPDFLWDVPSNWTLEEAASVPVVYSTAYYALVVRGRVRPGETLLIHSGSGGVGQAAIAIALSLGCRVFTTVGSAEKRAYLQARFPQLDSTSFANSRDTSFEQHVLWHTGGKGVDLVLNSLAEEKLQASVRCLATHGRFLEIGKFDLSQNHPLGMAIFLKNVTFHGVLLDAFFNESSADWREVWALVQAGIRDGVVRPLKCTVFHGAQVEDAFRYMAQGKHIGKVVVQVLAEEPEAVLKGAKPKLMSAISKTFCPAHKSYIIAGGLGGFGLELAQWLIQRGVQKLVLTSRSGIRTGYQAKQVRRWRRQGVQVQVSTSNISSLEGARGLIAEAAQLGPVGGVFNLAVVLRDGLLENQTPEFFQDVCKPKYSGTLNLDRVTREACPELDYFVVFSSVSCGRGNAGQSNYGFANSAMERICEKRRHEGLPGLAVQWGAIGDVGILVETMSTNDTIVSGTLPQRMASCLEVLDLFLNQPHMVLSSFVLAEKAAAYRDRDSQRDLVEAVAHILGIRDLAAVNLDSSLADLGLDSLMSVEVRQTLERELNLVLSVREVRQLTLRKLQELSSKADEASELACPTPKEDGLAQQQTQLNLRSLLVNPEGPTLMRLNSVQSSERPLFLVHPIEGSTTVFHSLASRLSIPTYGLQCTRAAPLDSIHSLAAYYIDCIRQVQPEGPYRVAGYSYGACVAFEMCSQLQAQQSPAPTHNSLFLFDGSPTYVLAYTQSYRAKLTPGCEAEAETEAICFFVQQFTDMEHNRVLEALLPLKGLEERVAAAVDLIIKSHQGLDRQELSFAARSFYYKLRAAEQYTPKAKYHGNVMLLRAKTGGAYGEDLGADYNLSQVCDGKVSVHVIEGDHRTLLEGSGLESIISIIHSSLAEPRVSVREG

Row | IC50 [nM] | Structure (SMILES)
1 | 1000 to 10000 | CC(C)C(=O)N1CCC(C2(c3ccc(-c4ccc5ncccc5c4)cc3)OCCO2)CC1 [Example 102, 2-Methyl-1-{4-[2-(4-quinolin-6-yl-phenyl)-1,3-dioxolan-2-yl]-piperidin-1-yl}-propan-1-one]
2 | 100 to 999 | CCOC(C)(c1ccc(-c2cnc3ccccc3c2)cc1)C1CCN(C(=O)C2CC2)CC1 (stereo not shown) [Example 207, Cyclopropyl-{4-[1-ethoxy-1-(4-quinolin-3-yl-phenyl)-ethyl]-piperidin-1-yl}-methanone]
3 | 1 to 99 | CCC(=O)N1CCC(C(C)c2ccc(-c3cnc4ccccc4c3C)cc2)CC1 (stereo not shown) [Example 65, 1-(4-{1-[4-(4-Methylquinolin-3-yl)-phenyl]-ethyl}-piperidin-1-yl)-propan-1-one]
4 | 100 to 999 | CCC(=O)N1CCC(C)(C(=O)c2ccc(-c3cnc4ccccc4c3)cc2)CC1 [Example 56, 1-[4-Methyl-4-(4-quinolin-3-yl-benzoyl)-piperidin-1-yl]-propan-1-one]
5 | 1 to 99 | COc1c(-c2ccc(C(C)C3CCN(C(=O)C4CC4)CC3)cc2)ccc2cccnc12 (stereo not shown) [Example 66, Cyclopropyl-(4-{1-[4-(8-methoxyquinolin-7-yl)-phenyl]-ethyl}-piperidin-1-yl)-methanone]
6 | 100 to 999 | Cc1c(-c2ccc(CC3CCN(C(=O)C4CC4)CC3)cc2)ccc2nccn12 [Example 95, Cyclopropyl-{4-[4-(5-methylimidazo[1,2-a]pyridin-6-yl)-benzyl]-piperidin-1-yl}-methanone]
7 | 1 to 99 | O=C(C1CC1)N1CCC(F)(Cc2ccc(-c3cnc4ccccc4c3Cl)cc2)CC1 [Example 197, (4-(4-(4-Chloroquinolin-3-yl)benzyl)-4-fluoropiperidin-1-yl)(cyclopropyl)-methanone]
8 | 1 to 99 | O=C([C@@H]1CCCO1)N1CCC(Cc2ccc(-c3cnc4ccccc4c3)cc2)CC1 [Example 5]
9 | 1000 to 10000 | c1cnc2ccc(-c3ccc(C4(C5CCN(C6CCOCC6)CC5)OCCO4)cc3)cc2c1 [Example 108, 6-(4-{2-[1-(Tetrahydropyran-4-yl)-piperidin-4-yl]-1,3-dioxolan-2-yl}-phenyl)-quinoline]
10 | 1000 to 10000 | CCC(OC)(c1ccc(-c2ccc3cccnc3c2)cc1)C1CCN(C(=O)C2CC2)CC1 (stereo not shown) [Example 217, Cyclopropyl-{4-[1-methoxy-1-(4-quinolin-7-yl-phenyl)-propyl]-piperidin-1-yl}-methanone]
11 | 1 to 99 | O=C([C@H]1CCCO1)N1CCC(Cc2ccc(-c3cc4ccccc4cn3)cc2)CC1 [Example 28, [4-(4-Isoquinolin-3-yl-benzyl)-piperidin-1-yl]-(R)-tetrahydrofuran-2-yl-methanone]
12 | 1 to 99 | Cc1c(-c2ccc(C(C)C3CCN(C(=O)[C@H]4CCCO4)CC3)cc2)cnc2ccccc12 (mixture of isomers) [Example 71, (4-{1-[4-(4-Methylquinolin-3-yl)-phenyl]-ethyl}-piperidin-1-yl)-(R)-tetrahydrofuran-2-yl-methanone]
13 | 1 to 99 | O=C([C@H]1CCCO1)N1CCC(C(F)(F)c2ccc(-c3cnc4ccccc4c3)cc2)CC1 [Example 18, {4-[Difluoro-(4-quinolin-3-yl-phenyl)-methyl]-piperidin-1-yl}-(R)-tetrahydrofuran-2-yl-methanone]
14 | 1 to 99 | CCC(=O)N1CCC(C(C)(O)c2ccc(-c3ccc4cnccc4c3)cc2F)CC1 (stereo not shown) [Example 132, 1-{4-[1-(2-Fluoro-4-isoquinolin-6-yl-phenyl)-1-hydroxy-ethyl]-piperidin-1-yl}-propan-1-one]
15 | 100 to 999 | Cc1nccc2cc(-c3ccc(C(OCCCN4CCOCC4)C4CCN(C(=O)[C@H]5CCCO5)CC4)cc3)ccc12 (stereo partly drawn) [Example 86, {4-[[4-(1-Methylisoquinolin-6-yl)-phenyl]-(3-morpholin-4-yl-propoxy)-methyl]-piperidin-1-yl}-(R)-tetrahydrofuran-2-yl-methanone]
16 | 100 to 999 | CCOC(C)(c1ccc(-c2cnc3ccccc3c2)cc1)C1CCN(C(=O)CC)CC1 (stereo not shown) [Example 206, 1-{4-[1-Ethoxy-1-(4-quinolin-3-yl-phenyl)-ethyl]-piperidin-1-yl}-propan-1-one]
17 | 1000 to 10000 | CC(c1ccc(-c2cnc3ccccc3c2)cc1)C1CCN(C=O)CC1 (stereo not shown) [Example 60, 4-[1-(4-Quinolin-3-yl-phenyl)-ethyl]-piperidine-1-carbaldehyde]

Row | IC50 [nM] | Structure (SMILES)
18 | 1 to 99 | CCC(=O)N1CCC(C(OCCOC)c2ccc(-c3ccc4cccnc4c3C)cc2)CC1 (stereo not shown) [Example 81, 1-(4-{(2-Methoxyethoxy)-[4-(8-methyl-quinolin-7-yl)-phenyl]-methyl}-piperidin-1-yl)-propan-1-one]
19 | 100 to 999 | CCC(=O)N1CCC(Cc2ccc(-c3cnc4ccccc4c3)cc2)C(=O)C1 (stereo not shown) [Example 220, 1-Propionyl-4-(4-quinolin-3-yl-benzyl)-piperidin-3-one]
20 | 1 to 99 | O=C([C@H]1CCCO1)N1CC[C@@H](Cc2ccc(-c3cnc4ccccc4c3)cc2)[C@H](O)C1 [Example 224, [trans-3-Hydroxy-4-(4-quinolin-3-yl-benzyl)-piperidin-1-yl]-(R)-tetrahydrofuran-2-yl-methanone]
21 | 100 to 999 | O=C(C1CC1)N1CC=C(Cc2ccc(-c3ccc4cnccc4c3)cc2)CC1 [Example 176, Cyclopropyl(4-(4-(isoquinolin-6-yl)benzyl)-5,6-dihydropyridin-1(2H)-yl)methanone]
22 | 1 to 99 | Cc1nccc2cc(-c3ccc(CC4CCN(C(=O)C5CC5)CC4)cc3)ccc12 [Example 36, Cyclopropyl-{4-[4-(1-methyl-isoquinolin-6-yl)-benzyl]-piperidin-1-yl}-methanone]
23 | 100 to 999 | CCC(=O)N1CC[C@@H](Cc2ccc(-c3cnc4ccccc4c3)cc2)[C@H](O)C1 (relative stereo) [Example 218, 1-[trans-3-Hydroxy-4-(4-quinolin-3-yl-benzyl)-piperidin-1-yl]-propan-1-one]
24 | 1 to 99 | Cc1c(-c2ccc(CC3CCN(C(=O)[C@H]4CCCO4)CC3)cc2)ccc2cccnc12 [Example 25, {4-[4-(8-Methylquinolin-7-yl)-benzyl]-piperidin-1-yl}-(R)-tetrahydrofuran-2-yl-methanone]
25 | 100 to 999 | CC(C)C(=O)N1CCC(C2(c3ccc(-c4cnc5ccccc5c4)cc3)OCCO2)CC1 [Example 140, 2-Methyl-1-{4-[2-(4-quinolin-3-yl-phenyl)-1,3-dioxolan-2-yl]-piperidin-1-yl}-propan-1-one]
26 | 1000 to 10000 | CC(C)C(=O)N1CCC(C2(c3ccc(-c4ccc5ccncc5c4)cc3)OCCO2)CC1 [Example 117, 1-{4-[2-(4-Isoquinolin-7-yl-phenyl)-1,3-dioxolan-2-yl]-piperidin-1-yl}-2-methyl-propan-1-one]
27 | 1 to 99 | COc1c(-c2ccc(CC3CCN(C(=O)[C@H]4CCCO4)CC3)cc2)ccc2cccnc12 [Example 34, {4-[4-(8-Methoxyquinolin-7-yl)-benzyl]-piperidin-1-yl}-(R)-tetrahydrofuran-2-yl-methanone]
28 | 1 to 99 | CCC(=O)N1CCC(/C(=N\OC)c2ccc(-c3cnc4ccccc4c3)cc2)CC1 [Example 46, 1-{4-[[(E:Z)-Methoxyimino]-(4-quinolin-3-yl-phenyl)-methyl]-piperidin-1-yl}-propan-1-one]
29 | 100 to 999 | CCC(=O)N1CC=C(Cc2ccc(-c3ccc4cccnc4c3)cc2)CC1 [Example 164, 1-(4-(4-(quinolin-7-yl)benzyl)-5,6-dihydropyridin-1(2H)-yl)propan-1-one]
30 | 1000 to 10000 | CCC(=O)N1CCC(C2(c3ccc(-c4ccc(CN(C)C)cc4)cc3)OCCO2)CC1 [Example 136, 1-{4-[2-(4′-Dimethylaminomethyl-biphenyl-4-yl)-1,3-dioxolan-2-yl]-piperidin-1-yl}-propan-1-one]
31 | 1 to 99 | Cc1c(-c2ccc(C(C)C3CCN(C(=O)C4CC4)CC3)cc2)ccc2cccnc12 (stereo not shown) [Example 63, Cyclopropyl-(4-{1-[4-(8-methylquinolin-7-yl)-phenyl]-ethyl}-piperidin-1-yl)-methanone]
32 | 100 to 999 | COC(C)(c1ccc(-c2ccc3cccnc3c2)cc1)C1CCN(C(=O)C2CC2)CC1 (stereo not shown) [Example 213, Cyclopropyl-{4-[1-methoxy-1-(4-quinolin-7-yl-phenyl)-ethyl]-piperidin-1-yl}-methanone]
33 | 1 to 99 | CCC(=O)N1CCC(F)(Cc2ccc(-c3cnc4ccccc4c3C)cc2)CC1 [Example 195, 1-(4-Fluoro-4-(4-(4-methylquinolin-3-yl)benzyl)piperidin-1-yl)propan-1-one]
34 | 100 to 999 | CCC(=O)N1CCC(C2(c3ccc(-c4ccc5cccnc5c4)cc3)OCCO2)CC1 [Example 114, 1-{4-[2-(4-Quinolin-7-yl-phenyl)-1,3-dioxolan-2-yl]-piperidin-1-yl}-propan-1-one]
